Common to all, as to assay: 3H-TdR (3H-thymidine) incorporation assay at 72 hr
One assay relates to SF-268. It counts as cell-based, Human. The conditions noted are these: Homo sapiens, 3H-TdR incorporation at 72 hr.
The next assay has as its system H-460. It counts as cell-based, Human. The conditions noted are these: Homo sapiens, 3H-TdR incorporation at 72 hr.
A further assay relates to MCF-7. The class given is cell-based, Human. The conditions noted are these: Homo sapiens, 3H-TdR incorporation at 72 hr.
The next assay has as its system CEM/dCK-. The class given is cell-based. The note with it: for pIC50: deoxycytidine kinase-deficient CCRF-CEM; for Factor* (Resistance Factor = Ratio of dCK- on Wild-type CCRF-CEM): ratio of IC50 CEM/dCK- to CCRF-CEM, 24 h. How it is done:
(§1) Table of IC50 Values (μM) for Controls
(§2) Exposition of 24 hr to drug, wash, incubated for another 48 hr (total of 72 hr assay)
(§3) (3H-Thymidine Incorporation Assay)

Another assay relates to CCRF-CEM. It counts as cell-based. The note with it: Homo sapiens, CCRF-CEM, read-out: IC50 CCRF-CEM 24 h, 24 h drug exposure, wash, another 48 hr; 3H-TdR incorporation at 72 hr. How it is done: as §1, §2, §3
Where [1] appears, read: SF-268, read-out: IC50 SF-268 24 h, 24 h drug exposure, wash, another 48 hr.
[2] abbreviates: NCI-H460, read-out: IC50 H-460 24 h, 24 h drug exposure, wash, another 48 hr.
[3] abbreviates: MCF7, read-out: IC50 MCF-7 24 h, 24 h drug exposure, wash, another 48 hr.
Setting [4] is: Homo sapiens, CCRF-CEM, read-out: IC50 CEM/dCK- 24 h, 24 h drug exposure, wash, another 48 hr.

pIC50: −log10 of the molar value. Like-named read-outs stand apart in the source and are kept apart here.

We go through 16 compounds from patent US20030013660A1, “Dioxolane analogs for improved inter-cellular delivery” (Shire BioChem Inc., priority 2000, published 2003).

As to `O=C(Nc1ccn([C@@H]2CO[C@H](COC(=O)C34CC5CC(CC(C5)C3)C4)O2)c(=O)n1)OCc1ccccc1` [Compound 101, ADAMANTANE-1-CARBOXYLIC ACID 4-(4- BENZYLOXYCARBONYLAMINO- 2-OXO-2H-PYRIMIDIN-1- YL)-[1,3]DIOXOLAN-2- YLMETHYL ESTER], the pIC50 in the assay on SF-268 (setting [1]) was 5.68; in the assay on H-460 (setting [2]), 6.48; with MCF-7 (setting [3]), 6.39; with CEM/dCK- (setting [4]), 4.80; in the assay on CCRF-CEM, 6.44. In addition, in the assay with CEM/dCK-, the “Factor* (Resistance Factor = Ratio of dCK- on Wild-type CCRF-CEM)” value is 44.
Take `CN(C)/C=N/c1ccn([C@@H]2CO[C@H](COC(=O)Cc3ccc(N(C)C)cc3)O2)c(=O)n1` [Compound 143, (2S,4S)-2-(4″-N,N- DIMETHYLAMINOPHENYLACET OXY)METHYL-4-(4′-N,N- DIMETHYLAMINOMETHYLENE- CYTOSIN-1′-YL)-1,3- DIOXOLANE]: the pIC50 is 6.85 in the assay with SF-268 (setting [1]); 7.92 in the assay on H-460 (setting [2]); 8.43 in the assay with MCF-7 (setting [3]); 4.49 with CEM/dCK- (setting [4]); 8.41 in the assay on CCRF-CEM. Also, the “Factor* (Resistance Factor = Ratio of dCK- on Wild-type CCRF-CEM)” value in the assay on CEM/dCK- was 8,205.
Regarding `CN(C)/C=N/c1ccn([C@@H]2CO[C@H](COC(=O)C(C)(C)C)O2)c(=O)n1` [Compound 133, 2,2-Dimethyl-propionic acid 4-[4-(dimethylamino-methyleneamino)-2-oxo-2H-pyrimidin-1-yl]-[1,3]dioxolan-2-ylmethyl ester], the pIC50 in the assay with SF-268 (setting [1]) was 7.80; in the assay with H-460 (setting [2]), 7.68; with MCF-7 (setting [3]), 7.00; in the assay with CEM/dCK- (setting [4]), 4.51; in the assay on CCRF-CEM, 7.57. The “Factor* (Resistance Factor = Ratio of dCK- on Wild-type CCRF-CEM)” value with CEM/dCK- is on record as 1,148.
On to `O=C(Nc1ccn([C@@H]2CO[C@H](CO)O2)c(=O)n1)OCCCCCl` [Compound 160, [1-(2-HYDROXYMETHYL- [1,3]DIOXOLAN-4-YL)-2- OXO-1,2-DIHYDRO- PYRIMIDIN-4-YL]- CARBAMIC ACID 4-CHLORO- BUTYL ESTER], for which the pIC50 with SF-268 (setting [1]) is 5.92; in the assay with H-460 (setting [2]), 6.04; in the assay with MCF-7 (setting [3]) it was 6.44; in the assay with CEM/dCK- (setting [4]), < 4.00; with CCRF-CEM, 6.44. In addition, the “Factor* (Resistance Factor = Ratio of dCK- on Wild-type CCRF-CEM)” value in the assay on CEM/dCK- is on record as >278.
In the case of `CC(OC[C@H]1OC[C@@H](n2ccc(N)nc2=O)O1)OC1CCCCC1` (stereo partly drawn) [Compound 92, 4-AMINO-1-[2-(1- CYCLOHEXYLOXY- ETHOXYMETHYL)- [1,3]DIOXOLAN-4-YL]-1H- PYRIMIDIN-2-ONE], the pIC50 in the assay with SF-268 (setting [1]) is 5.38; in the assay with H-460 (setting [2]) it was 5.68; with MCF-7 (setting [3]), 5.80; in the assay with CEM/dCK- (setting [4]), < 4.00; in the assay with CCRF-CEM it was 5.89. Besides, in the assay with CEM/dCK-, the “Factor* (Resistance Factor = Ratio of dCK- on Wild-type CCRF-CEM)” value turned out to be 77.
Take `COC(OC)OC[C@H]1OC[C@@H](n2ccc(N)nc2=O)O1` [Compound 38, 4-AMINO-1-(2- DIMETHOXYMETHOXYMETHYL- [1,3]DIOXOLAN-4-YL)-1H- PYRIMIDIN-2-ONE]: the pIC50 with SF-268 (setting [1]) is 6.05; in the assay with H-460 (setting [2]), 6.47; with MCF-7 (setting [3]), 6.00; in the assay on CEM/dCK- (setting [4]), < 4.00; with CCRF-CEM it was 6.96. The “Factor* (Resistance Factor = Ratio of dCK- on Wild-type CCRF-CEM)” value with CEM/dCK- worked out at 909.
In the case of `CC(C)(C)OC(=O)N(CCCCCC(=O)Nc1ccn([C@@H]2CO[C@H](CO)O2)c(=O)n1)Cc1ccccc1` [Compound 77, Benzyl-{5-[1-(2-hydroxymethyl-[1,3]dioxolan-4-yl)-2-oxo-1,2-dihydro-pyrimidin-4-ylcarbamoyl]-pentyl}-carbamic acid tert-butyl ester], the pIC50 with SF-268 (setting [1]) is 6.42; in the assay with H-460 (setting [2]) it was 7.23; with MCF-7 (setting [3]) it was 7.52; with CEM/dCK- (setting [4]) it was 4.13; with CCRF-CEM, 7.27. Also, the “Factor* (Resistance Factor = Ratio of dCK- on Wild-type CCRF-CEM)” value in the assay with CEM/dCK- is 1,370.
With `CC(C(=O)OC[C@H]1OC[C@@H](n2ccc(N)nc2=O)O1)C(c1ccccc1)c1ccccc1` (stereo partly drawn) [Compound 157, (2S,4S)-(3″-DIPHENYL- 2″- METHYLPROPIOXYMETHYL)- 4-CYTOSIN-1′-YL-1,3- DIOXOLANE], the pIC50 with SF-268 (setting [1]) is 5.66; with H-460 (setting [2]), 7.62; in the assay on MCF-7 (setting [3]), 6.26; in the assay with CEM/dCK- (setting [4]), < 4.00; in the assay with CCRF-CEM it was 7.92. Besides, the “Factor* (Resistance Factor = Ratio of dCK- on Wild-type CCRF-CEM)” value with CEM/dCK- is >8333.
`CCCCCCNC(=O)OC[C@H]1OC[C@@H](n2ccc(N)nc2=O)O1` [Compound 121, HEXYL-CARBAMIC ACID 4- (4-AMINO-2-OXO-2H- PYRIMIDIN-1-YL)- [1,3]DIOXOLAN-2- YLMETHYL ESTER]: the pIC50 with SF-268 (setting [1]) was < 4.00; in the assay with H-460 (setting [2]) it was 4.55; in the assay on MCF-7 (setting [3]), 4.43; in the assay with CEM/dCK- (setting [4]), < 4.00; in the assay with CCRF-CEM, 4.77. Further, the “Factor* (Resistance Factor = Ratio of dCK- on Wild-type CCRF-CEM)” value in the assay on CEM/dCK- was >6.
Take `Nc1ccn([C@@H]2CO[C@H](COC3CCCCO3)O2)c(=O)n1` (stereo in doubt) [Compound 41, 4-AMINO-1-[2- (TETRAHYDRO-PYRAN-2- YLOXYMETHYL)- [1,3]DIOXOLAN-4-YL]-1H- PYRIMIDIN-2-ONE]: the pIC50 was < 4.00 with SF-268 (setting [1]); 4.40 in the assay with H-460 (setting [2]); 4.04 in the assay with MCF-7 (setting [3]); < 4.00 with CEM/dCK- (setting [4]); 4.68 in the assay with CCRF-CEM. Moreover, in the assay on CEM/dCK-, the “Factor* (Resistance Factor = Ratio of dCK- on Wild-type CCRF-CEM)” value is reported as 5.
`CC(C)(C)OC(=O)N(CCCCC(=O)OC[C@H]1OC[C@@H](n2ccc(N)nc2=O)O1)Cc1ccccc1` [Compound 111, 5-(BENZYL-TERT- BUTOXYCARBONYL-AMINO)- PENTANOIC ACID 4-(4- AMINO-2-OXO-2H- PYRIMIDIN-1-YL)- [1,3]DIOXOLAN-2- YLMETHYL ESTER]: the pIC50 in the assay on SF-268 (setting [1]) was 8.68; in the assay with H-460 (setting [2]), 9.89; in the assay on MCF-7 (setting [3]), 9.59; in the assay with CEM/dCK- (setting [4]), 5.59; with CCRF-CEM, 9.70. Besides, in the assay with CEM/dCK-, the “Factor* (Resistance Factor = Ratio of dCK- on Wild-type CCRF-CEM)” value came out at 13000.
As to `CC(C)CC(=O)OC[C@H]1OC[C@@H](n2ccc(N)nc2=O)O1` [Compound 278, 3-METHYL-BUTYRIC ACID 4-(4-AMINO-2-OXO-2H- PYRIMIDIN-1-YL)- [1,3]DIOXOLAN-2-YL METHYL ESTER], the pIC50 with SF-268 (setting [1]) was 7.03; in the assay on SF-268 (SF-268, read-out: IC50 SF-268 (72 h), 72 h exposure), 7.89; in the assay with H-460 (setting [2]), 7.10; in the assay with H-460 (NCI-H460, read-out: IC50 H-460 (72 h), 72 h exposure) it was 8.62; in the assay with MCF-7 (setting [3]), 7.42; with MCF-7 (MCF7, read-out: IC50 MCF-7 (72 h), 72 h exposure) it was 7.64. Also, the pIC50 was 4.15 in the assay on CEM/dCK- (setting [4]); 4.04 in the assay on CEM/dCK- (read-out: IC50 CEM/dCK- 24 h, 24 h drug exposure, wash, another 48 hr); 7.55 with CCRF-CEM.
Turning to `CCCCC(C)C(=O)OC[C@H]1OC[C@@H](n2ccc(N)nc2=O)O1.Cl` (stereo partly drawn) [Compound 86, (2S,4S)-2-(2″-METHYL- HEXANOICOXYMETHYL)-4- CYTOSIN-1′-YL-1,3- DIOXOLANE HYDROCHLORIDE], the pIC50 in the assay with SF-268 (setting [1]) was 7.89; with H-460 (setting [2]) it was 8.70; in the assay with MCF-7 (setting [3]) it was 8.72; with CEM/dCK- (setting [4]), 5.40; with CCRF-CEM, 8.96. Further, in the assay on CEM/dCK-, the “Factor* (Resistance Factor = Ratio of dCK- on Wild-type CCRF-CEM)” value is recorded as 3,636.
With `O=C(Nc1ccn([C@@H]2CO[C@H](COC(=O)OCCCCCl)O2)c(=O)n1)OCCCCCl` [Compound 159, CARBONIC ACID 4-[4-(4- CHLORO- BUTOXYCARBONYLAMINO)-2- OXO-2H-PYRIMIDIN-1-YL]- [1,3]DIOXOLAN-2- YLMETHYL ESTER 4- CHLORO-BUTYL ESTER], the pIC50 in the assay with SF-268 (setting [1]) is 5.80; in the assay with H-460 (setting [2]), 6.06; in the assay with MCF-7 (setting [3]) it was 6.14; with CEM/dCK- (setting [4]) it was < 4.00; in the assay on CCRF-CEM, 6.42. In addition, in the assay on CEM/dCK-, the “Factor* (Resistance Factor = Ratio of dCK- on Wild-type CCRF-CEM)” value is on record as >263.
In the case of `Cl.Nc1ccn([C@@H]2CO[C@H](COC(=O)Oc3ccc([N+](=O)[O-])cc3)O2)c(=O)n1` [Compound 88, 1-[2-(4-NITRO- PHENOXYCARBONYLOXYMETHY L)-[1,3]DIOXOLAN-4-YL]- 2-OXO-1,2-DIHYDRO- PYRIMIDIN-4-YL- AMMONIUM; CHLORIDE], the pIC50 in the assay with SF-268 (setting [1]) was 6.21; with H-460 (setting [2]), 6.85; in the assay with MCF-7 (setting [3]) it was 6.72; in the assay with CEM/dCK- (setting [4]) it was 4.09; in the assay on CCRF-CEM, 7.06. The “Factor* (Resistance Factor = Ratio of dCK- on Wild-type CCRF-CEM)” value in the assay with CEM/dCK- was determined as 931.
As for `COc1ccc(C(OC[C@H]2OC[C@@H](n3ccc(N)nc3=O)O2)(c2ccccc2)c2ccccc2)cc1` [Compound 134, 4-AMINO-1-{2-[(4- METHOXY-PHENYL)- DIPHENYL- METHOXYMETHYL]- [1,3]DIOXOLAN-4-YL}-1H- PYRIMIDIN-2-ONE], the pIC50 was 5.52 in the assay with SF-268 (setting [1]); 4.92 with H-460 (setting [2]); 4.96 with MCF-7 (setting [3]); 4.70 with CEM/dCK- (setting [4]); 5.15 with CCRF-CEM. Further, the “Factor* (Resistance Factor = Ratio of dCK- on Wild-type CCRF-CEM)” value in the assay with CEM/dCK- is 3.
